Assay results taken from the NIST ThermoML archive (doi:10.1016/j.jct.2013.07.011).
Numbers after ± are expanded uncertainties.

Conditions: 298.15 K; 101.33 kPa; Liquid; Vibrating tube method

Compound | mass density
c1ccccc1 [benzene] | 873.57 ± 0.11 kg/m3
Cc1ccccc1 [toluene] | 862.17 ± 0.11 kg/m3
CCCC[n+]1ccn(C)c1.O=S(=O)([N-]S(=O)(=O)C(F)(F)F)C(F)(F)F | 1436.35 ± 4 kg/m3
C1CCCCCCC1 [cyclooctane] | 831.47 ± 0.3 kg/m3
CCCCn1cc[n+](C)c1.COS(=O)(=O)[O-] [1-butyl-3-methylimidazolium methyl sulfate] | 1212.59 ± 4 kg/m3

More lines, now with the values ahead:

mass density | Compound
713.99 ± 0.32 kg/m3 | CCCCCCCCC [nonane]
698.6 ± 0.23 kg/m3 | CCCCCCCC [octane]
